Results published in PMC11258331 (Scientific Reports, 2024).
Marks after values point to notes of the source that are not given here.

Columns and labels:
[1] = tested on: platelet aggregation induced by adenosine diphosphate (ADP); test: ADP (20 µM)-induced platelet aggregation, light transmission aggregometry; format: in vivo, human; conditions: drug alone (Treatment E or H)
Procedure: (§1) PD assessments were performed on Days 1 (≤ 24 h) and 5 (≤ 72 h) of each period (Supplementary Table 8); assessments included aPTT[18], FXIc[18], and bleeding time (assessed according to the PPD® Laboratories [Austin, TX] procedure where a blood pressure cuff, situated above the incision site, provided pressure at 40 mmHg and blood from the incision was wicked with filter paper every 30 s until cessation to record bleeding time). In addition, AA (1 mM), ADP) (20 µM)-, and collagen (5 μg/ml)-induced platelet aggregation assays were performed using light transmission aggregometry (PPD® Laboratories) and performed on Days 1 and 5 (≤ 24 h) for only Period 1.

[2] = tested on: platelet aggregation induced by collagen; test: Collagen (5 μg/ml)-induced platelet aggregation, light transmission aggregometry; format: in vivo, human; conditions: drug alone (Treatment E or H)
Procedure: as §1

[3] = tested on: arachidonic acid (AA)-induced platelet aggregation; test: AA (1 mM)-induced platelet aggregation, light transmission aggregometry; format: in vivo, human; conditions: drug alone (Treatment E or H)
Procedure: as §1

[4] = tested on: human carboxylesterase 1; conditions: liver; cited from earlier work
[5] = tested on: healthy participants; test: Adverse events and bleeding-related AEs by treatment, phase I DDI study;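 note: counts from medical review of adverse event and bleeding-related adverse event reports, collected at selected times across the dosing interval, single US site, randomised 1:1:1 to one study part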
Procedure: Participants underwent screening evaluations to determine eligibility within 35 days of study drug administration, and eligible participants were randomly assigned 1:1:1 to a single part of the study.
Safety assessments were performed at selected times throughout the dosing interval (Supplementary Table 7). The assessments were based on medical review of AE and bleeding-related AE reports, and the results of vital sign measurements, ECG measurements, physical examinations, and clinical laboratory tests.

[6] = Plasma pharmacokinetics (LC-MS/MS, noncompartmental; GMR by linear mixed-effects model); conditions: for Cmax: geometric mean (90% CI);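 for all read-outs here: participants at one US clinical research site, randomized 1:1:1 to a single study part, with 90% CIs from a mixed-effects model on log-transformed PK parameters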
Procedure: The study (ClinicalTrials.gov Identifier: NCT03698513) was conducted at 1 clinical research center in the United States. […] Participants underwent screening evaluations to determine eligibility within 35 days of study drug administration, and eligible participants were randomly assigned 1:1:1 to a single part of the study.
All statistical analyses and calculations were performed using SAS® software (SAS Institute, Inc., Cary, North Carolina; version 9.3). All safety and plasma PK/PD data were summarized using descriptive statistics. Descriptive summaries were presented for continuous variables using number of subjects (N), mean, SD; median, minimum, and maximum. […] CIs were constructed using a linear mixed-effects model with treatment as a fixed effect and measurements within participants as repeated measures fitted to the log-transformed PK parameters.

COC(=O)[C@H](c1ccccc1Cl)N1CCc2sccc2C1 [Clopidogrel]
Inhibition of ADP-induced aggregation compared with baseline [1]: ~ 50%
Inhibition of collagen-induced aggregation compared with baseline [2]: < 10%
Inhibition of AA-induced aggregation compared with baseline [3]: ~ 60%
Share first-passed hydrolyzed to clopidogrel acid [4]: ~ 85 % of absorbed drug
Anal fissure hemorrhage ([5]; Part 2 (Treatments D-F)): 0 n (%)
Contusion ([5]; Part 2 (Treatments D-F)): 1 (2.8)^†† n (%)
Deaths ([5]; Part 2 (Treatments D-F)): 0 n (%)
Discontinuations due to AEs ([5]; Part 2 (Treatments D-F)): 1 (2.8)^‖ n (%)
Epistaxis ([5]; Part 2 (Treatments D-F)): 0 n (%)
Gingival bleeding ([5]; Part 2 (Treatments D-F)): 0 n (%)
Serious AEs ([5]; Part 2 (Treatments D-F)): 0 n (%)
Total participants with an AE ([5]; Part 2 (Treatments D-F)): 6 (16.7) n (%)
Total participants with bleeding event(s) ([5]; Part 2 (Treatments D-F)): 1 (2.8) n (%)
Vessel puncture site bruise ([5]; Part 2 (Treatments D-F)): 0 n (%)
Events of contusion reported by a single participant ([5]; bleeding AE): 1 events
Reduction of Cmax ([6]; Day 1, Treatment A vs Treatment C (aspirin and clopidogrel without milvexian)): 14%
Reduction of Cmax ([6]; Day 1, Treatment F (with milvexian) vs Treatment E (clopidogrel alone)): 9.1%
Cmax, geometric mean (90% CI) ([6]; Day 1, plasma, Treatment F (milvexian + clopidogrel), Part 2): 4.05 (3.09, 5.31) ng/mL
Cmax, geometric mean [n] (90% CI) ([6]; Day 5, plasma, Treatment C (placebo + aspirin + clopidogrel), Part 1): 1.15 (0.898, 1.46) ng/mL
Cmax ([6]; human, plasma, oral, Day 1, plasma, Treatment A (milvexian + aspirin + clopidogrel), Part 1): 3.29 ng/mL
Cmax ([6]; human, plasma, oral, Day 1, plasma, Treatment C (placebo + aspirin + clopidogrel), Part 1): 3.83 ng/mL
Cmax ([6]; human, plasma, oral, Day 1, plasma, Treatment E (placebo + clopidogrel), Part 2): 4.45 ng/mL
half-life ([6]; human, plasma, oral, Mean T1/2, with (Treatment F) and without (Treatment E) milvexian, Days 1 and 5): 1 to 2 h
Tmax ([6]; human, plasma, oral, Median Tmax, Day 1, Treatments F and E): 1 to 1.5 h
Tmax ([6]; human, plasma, oral, Median Tmax, Day 5, Treatments F and E): 0.5 to 1 h
Tmax ([6]; human, plasma, oral, Tmax, median [n] (range), Day 5, plasma, Treatment C (placebo + aspirin + clopidogrel), Part 1): 0.5 h
